Results from PubChem BioAssay AID1963872 (Molecular Pharmacology Branch, DTP, NCI, 2024).
pIC50: −log10 of the molar value.

Tested on: KRAS patient-derived spheroids with HUVEC/MSC, viability
Assay: Anticancer human tumor 519858-162-T-J1-PDC patient-derived colon adenocarcinoma cell line growth inhibition [KRAS2]
Conditions: for viability, T/C: stronger effect = lower value
Method in brief: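 KRAS-mutant tumor cells were grown as spheroids with HUVEC endothelial cells and human MSCs as stroma. Targeted agents were tested alone and with KRAS pathway inhibitors. Doses started at or near clinical Cmax, or 10 microM, descending half-log.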

[1] = curve of first compound, second compound 0.1 µM
[2] = curve of first compound, second compound 0.316 µM
[3] = curve of first compound, second compound 1 µM
[4] = curve of first compound, second compound 3.16 µM
[5] = curve of first compound, second compound 10 µM
[6] = second compound 0.1 µM, first compound 0.0316 µM
[7] = second compound 0.1 µM, first compound 0.1 µM
[8] = second compound 0.1 µM, first compound 0.316 µM
[9] = second compound 0.1 µM, first compound 1 µM
[10] = second compound 0.1 µM, first compound 3.16 µM
[11] = second compound 0.316 µM, first compound 0.0316 µM
[12] = second compound 0.316 µM, first compound 0.1 µM
[13] = second compound 0.316 µM, first compound 0.316 µM
[14] = second compound 0.316 µM, first compound 1 µM
[15] = second compound 0.316 µM, first compound 3.16 µM
[16] = second compound 1 µM, first compound 0.0316 µM
[17] = second compound 1 µM, first compound 0.1 µM
[18] = second compound 1 µM, first compound 0.316 µM
[19] = second compound 1 µM, first compound 1 µM
[20] = second compound 1 µM, first compound 3.16 µM
[21] = second compound 3.16 µM, first compound 0.0316 µM
[22] = second compound 3.16 µM, first compound 0.1 µM
[23] = second compound 3.16 µM, first compound 0.316 µM
[24] = second compound 3.16 µM, first compound 1 µM
[25] = second compound 3.16 µM, first compound 3.16 µM
[26] = second compound 10 µM, first compound 0.0316 µM
[27] = second compound 10 µM, first compound 0.1 µM
[28] = second compound 10 µM, first compound 0.316 µM
[29] = second compound 10 µM, first compound 1 µM
[30] = second compound 10 µM, first compound 3.16 µM
[31] = second compound 0.1 µM, first compound 10 µM
[32] = second compound 0.316 µM, first compound 10 µM
[33] = second compound 1 µM, first compound 10 µM
[34] = second compound 3.16 µM, first compound 10 µM
[35] = second compound 10 µM, first compound 10 µM
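Note: compound exposure lasted seven days before readout.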
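Throughout, for viability, T/C: 100% = DMSO vehicle control viability.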

| Structure (SMILES) | pIC50 [1] | pIC50 [2] | pIC50 [3] | pIC50 [4] | pIC50 [5] | viability, T/C [6] [%] | viability, T/C [7] [%] | viability, T/C [8] [%] | viability, T/C [9] [%] | viability, T/C [10] [%] | viability, T/C [11] [%] | viability, T/C [12] [%] | viability, T/C [13] [%] | viability, T/C [14] [%] | viability, T/C [15] [%] | viability, T/C [16] [%] | viability, T/C [17] [%] | viability, T/C [18] [%] | viability, T/C [19] [%] | viability, T/C [20] [%] | further results |
| --- | --- | --- | --- | --- | --- | --- | --- | --- | --- | --- | --- | --- | --- | --- | --- | --- | --- | --- | --- | --- | --- |
| CC1COCCN1c1cc(-c2ccnn2C)c2ccnc(-c3ccn[nH]3)c2n1 (stereo not drawn) + C=CC(=O)N1CCN(c2nc(=O)n(-c3c(C)ccnc3C(C)C)c3nc(-c4c(O)cccc4F)c(F)cc23)C(C)C1 | 5.74 | 5.68 | 6.08 | < 5.50 | 6.47 | 102 | 89.3 | 82.7 | 61.6 | 38.1 | 94 | 78.4 | 87.9 | 69.8 | 39.1 | 91.8 | 124 | 78.5 | 50.1 | 39.6 | viability, T/C (second compound 0.1 µM, first compound 0.01 µM): 115%; viability, T/C (second compound 0.316 µM, first compound 0.01 µM): 87.4%; viability, T/C (second compound 1 µM, first compound 0.01 µM): 116%; viability, T/C (second compound 3.16 µM, first compound 0.01 µM): 110%; viability, T/C [21]: 97.9%; viability, T/C [22]: 89.4%; viability, T/C [23]: 80.9%; viability, T/C [24]: 68.6%; viability, T/C [25]: 48.8%; viability, T/C (second compound 10 µM, first compound 0.01 µM): 70.4%; viability, T/C [26]: 87%; viability, T/C [27]: 61.8%; viability, T/C [28]: 56%; viability, T/C [29]: 21.3%; viability, T/C [30]: 20.3% |
| O=C(c1cc(Cc2n[nH]c(=O)c3ccccc23)ccc1F)N1CCN(C(=O)C2CC2)CC1 + CC1OCC2(CCN(c3cnc(Sc4ccnc(N)c4Cl)c(N)n3)CC2)C1N | < 5.00 | < 5.00 | < 5.00 | < 5.00 | < 5.00 | 105 | 76.6 | 80.4 | 87.1 | 98.5 | 83.7 | 100 | 67.7 | 86.6 | 78.1 | 100 | 81.7 | 68.3 | 66.9 | 66.8 | viability, T/C [31]: 76.4%; viability, T/C [32]: 95.7%; viability, T/C [33]: 76.6%; viability, T/C [21]: 67.5%; viability, T/C [22]: 82.2%; viability, T/C [23]: 70.8%; viability, T/C [24]: 57.1%; viability, T/C [25]: 83.7%; viability, T/C [34]: 98.7%; viability, T/C [26]: 91.3%; viability, T/C [27]: 75.1%; viability, T/C [28]: 66.7%; viability, T/C [29]: 57.9%; viability, T/C [30]: 73%; viability, T/C [35]: 65.8% |
| Cn1ncnc1[C@H]1c2n[nH]c(=O)c3cc(F)cc(c23)N[C@@H]1c1ccc(F)cc1 | – | – | – | – | – | – | – | – | – | – | – | – | – | – | – | – | – | – | – | – | viability, T/C (compound 0.00316 µM): 85.4% [middle of 5 runs]; viability, T/C (compound 0.01 µM): 87% [middle of 5 runs]; pIC50 (curve of compound): < 7.00 |
| COc1cc2nccc(Oc3ccc(NC(=O)C4(C(=O)Nc5ccc(F)cc5)CC4)cc3)c2cc1OC + C=CC(=O)N1CCN(c2nc(=O)n(-c3c(C)ccnc3C(C)C)c3nc(-c4c(O)cccc4F)c(F)cc23)C(C)C1 | < 5.00 | < 5.00 | < 5.00 | < 5.00 | < 5.00 | 77.8 | 91.2 | 93.5 | 93.6 | 71.8 | 97.1 | 99 | 92.3 | 86.6 | 84.8 | 91.5 | 87.7 | 91.7 | 98.7 | 105 | viability, T/C [31]: 185%; viability, T/C [32]: 135%; viability, T/C [33]: 134%; viability, T/C [21]: 88.2%; viability, T/C [22]: 73.3%; viability, T/C [23]: 69.8%; viability, T/C [24]: 81%; viability, T/C [25]: 74.2%; viability, T/C [34]: 109%; viability, T/C [26]: 94.7%; viability, T/C [27]: 89.5%; viability, T/C [28]: 75.6%; viability, T/C [29]: 68.2%; viability, T/C [30]: 61.9%; viability, T/C [35]: 131% |
